Assay results taken from the NIST ThermoML archive (doi:10.1016/j.tca.2010.04.025).
Where “and” joins values, the source holds several entries; their conditions need not be identical. Equal entries are not always repeated. Numbers after ± are expanded uncertainties.

Tests used:
[1] = 101 kPa, Liquid; for speed of sound: Linear variable-path acoustic interferometer; for mass density: Pycnometric method
[2] = xn = mol fraction of the nth substance listed; details: 101 kPa, Liquid; for speed of sound: Linear variable-path acoustic interferometer; for mass density: Pycnometric method

CCNc1ccccc1 [N-ethylaminobenzene]
[1]
Details	mass density [kg/m3]	speed of sound [m/s]
303.15 K	951.9 ± 0.3	1497 ± 3
313.15 K	944.3 ± 0.4	1462 ± 3
323.15 K	935.9 ± 0.4	1431 ± 3

CCNc1ccccc1 [N-ethylaminobenzene] + C1CCOC1
[2]
Details	mass density, 303.15 K [kg/m3]	mass density, 313.15 K [kg/m3]	mass density, 323.15 K [kg/m3]	speed of sound, 303.15 K [m/s]	speed of sound, 313.15 K [m/s]	speed of sound, 323.15 K [m/s]
x2 = 0	951.9 ± 0.3	944.3 ± 0.4	935.9 ± 0.4	1497 ± 3	1462 ± 3	1431 ± 3
x2 = 0.0904	947.8 ± 0.3	940.8 ± 0.3	932.8 ± 0.4	1482 ± 3	1450 ± 3	1420 ± 3
x2 = 0.1892	943.8 ± 0.3	936.7 ± 0.3	929.1 ± 0.4	1469 ± 3	1435 ± 3	1404 ± 3
x2 = 0.2849	939.5 ± 0.3	932.4 ± 0.3	925.2 ± 0.4	1452 ± 3	1418 ± 3	1388 ± 3
x2 = 0.3819	934.5 ± 0.3	927.6 ± 0.3	920.6 ± 0.4	1433 ± 3	1399 ± 3	1367 ± 3
x2 = 0.4674	929.3 ± 0.3	922.6 ± 0.3	915.7 ± 0.4	1414 ± 3	1379 ± 3	1346 ± 3
x2 = 0.5758	921.9 ± 0.3	915.2 ± 0.3	908.1 ± 0.4	1387 ± 3	1351 ± 3	1317 ± 2
x2 = 0.6778	913.1 ± 0.3	906.4 ± 0.3	899.5 ± 0.4	1360 ± 3	1323 ± 2	1286 ± 2
x2 = 0.7876	902.1 ± 0.3	895.4 ± 0.3	887.7 ± 0.4	1326 ± 2	1287 ± 2	1250 ± 2
x2 = 0.8903	890.8 ± 0.3	882.8 ± 0.3	874.2 ± 0.3	1291 ± 2	1251 ± 2	1215 ± 2

CNc1ccccc1 [N-methylaniline]
[1]
Details	mass density [kg/m3]	speed of sound [m/s]
303.15 K	978.2 ± 0.3	1548 ± 3
313.15 K	969.8 ± 0.4	1512 ± 3
323.15 K	961 ± 0.4	1477 ± 3

CNc1ccccc1 [N-methylaniline] + C1CCOC1
[2]
Details	mass density, 303.15 K [kg/m3]	mass density, 313.15 K [kg/m3]	mass density, 323.15 K [kg/m3]	speed of sound, 303.15 K [m/s]	speed of sound, 313.15 K [m/s]	speed of sound, 323.15 K [m/s]
x2 = 0	978.2 ± 0.3	969.8 ± 0.4	961 ± 0.4	1548 ± 3	1512 ± 3	1477 ± 3
x2 = 0.0831	973.1 ± 0.3	964.9 ± 0.4	956.6 ± 0.4	1528 ± 3	1493 ± 3	1459 ± 3
x2 = 0.1864	966 ± 0.3	958.3 ± 0.4	949.9 ± 0.4	1502 ± 3	1466 ± 3	1433 ± 3
x2 = 0.2813	959.1 ± 0.3	951.4 ± 0.4	943.4 ± 0.4	1478 ± 3	1442 ± 3	1407 ± 3
x2 = 0.3782	951.5 ± 0.3	944 ± 0.4	935.8 ± 0.4	1453 ± 3	1416 ± 3	1381 ± 3
x2 = 0.4714	943.5 ± 0.3	936 ± 0.4	927.4 ± 0.4	1428 ± 3	1390 ± 3	1354 ± 3
x2 = 0.5746	933.2 ± 0.3	926 ± 0.3	916.9 ± 0.4	1396 ± 3	1358 ± 3	1322 ± 3
x2 = 0.6956	919.4 ± 0.3	912.2 ± 0.3	902.6 ± 0.4	1357 ± 3	1318 ± 2	1282 ± 2
x2 = 0.7823	908.2 ± 0.3	900.8 ± 0.3	891.1 ± 0.4	1329 ± 3	1289 ± 2	1252 ± 2
x2 = 0.8882	893.4 ± 0.3	885.7 ± 0.3	875.8 ± 0.4	1293 ± 2	1252 ± 2	1213 ± 2

Nc1ccccc1 [aniline]
[1]
Details	mass density [kg/m3]	speed of sound [m/s]
303.15 K	1012.8 ± 0.4	1615 ± 3
313.15 K	1004.9 ± 0.4	1583 ± 3
323.15 K	998.4 ± 0.4	1558 ± 3

Nc1ccccc1 [aniline] + C1CCOC1
[2]
Details	mass density, 303.15 K [kg/m3]	mass density, 313.15 K [kg/m3]	mass density, 323.15 K [kg/m3]	speed of sound, 303.15 K [m/s]	speed of sound, 313.15 K [m/s]	speed of sound, 323.15 K [m/s]
x2 = 0	1012.8 ± 0.4	1004.9 ± 0.4	998.4 ± 0.4	1615 ± 3	1583 ± 3	1558 ± 3
x2 = 0.087	1004.4 ± 0.4	997.5 ± 0.4	991.5 ± 0.4	1592 ± 3	1561 ± 3	1537 ± 3
x2 = 0.1803	994.8 ± 0.3	988.2 ± 0.4	981.6 ± 0.4	1565 ± 3	1531 ± 3	1510 ± 3
x2 = 0.2735	984.8 ± 0.3	978.5 ± 0.4	971.8 ± 0.4	1535 ± 3	1500 ± 3	1478 ± 3
x2 = 0.3573	975.4 ± 0.3	969.4 ± 0.4	962.4 ± 0.4	1509 ± 3	1473 ± 3	1450 ± 3
x2 = 0.4556	964.1 ± 0.3	957.8 ± 0.4	951.6 ± 0.4	1476 ± 3	1440 ± 3	1417 ± 3
x2 = 0.5638	950.5 ± 0.3	943.9 ± 0.4	937.9 ± 0.4	1438 ± 3	1402 ± 3	1379 ± 3
x2 = 0.6708	935 ± 0.3	928.7 ± 0.3	922.6 ± 0.4	1393 ± 3	1359 ± 3	1334 ± 3
x2 = 0.8169	910.1 ± 0.3	904 ± 0.3	898.5 ± 0.4	1334 ± 3	1299 ± 2	1268 ± 2
x2 = 0.8812	898.7 ± 0.3	892.2 ± 0.3	885 ± 0.4	1306 ± 2	1267 ± 2	1237 ± 2

C1CCOC1 [tetrahydrofuran]
[1]
Details	mass density	speed of sound [m/s]
303.15 K	877.3 ± 0.3 kg/m3	1256 ± 2
313.15 K	867.2 ± 0.3 kg/m3	1212 ± 2
323.15 K	856.6 ± 0.3 kg/m3 and 857.1 ± 0.3 kg/m3	1171 ± 2

C1CCOC1 [tetrahydrofuran] + CCNc1ccccc1
[2], x1 = 1
Details	mass density [kg/m3]	speed of sound [m/s]
303.15 K	877.3 ± 0.3	1256 ± 2
313.15 K	867.2 ± 0.3	1212 ± 2
323.15 K	857.1 ± 0.3	1171 ± 2

C1CCOC1 [tetrahydrofuran] + CNc1ccccc1
[2], x1 = 1
Details	mass density [kg/m3]	speed of sound [m/s]
303.15 K	877.3 ± 0.3	1256 ± 2
313.15 K	867.2 ± 0.3	1212 ± 2
323.15 K	856.6 ± 0.3	1171 ± 2

C1CCOC1 [tetrahydrofuran] + Nc1ccccc1
[2], x1 = 1
Details	mass density [kg/m3]	speed of sound [m/s]
303.15 K	877.3 ± 0.3	1256 ± 2
313.15 K	867.2 ± 0.3	1212 ± 2
323.15 K	856.6 ± 0.3	1171 ± 2
